Some results are limits rather than exact numbers.

The target in one assay is Serotonin transporter (Homo sapiens, UniProt P31645). Nature of the assay: Off‐target panel: Serotonin transporter. The class given is cell-based. As for the experimental part: (§1) GSK716 selectivity and PK properties were profiled in order to investigate the suitability of GSK716 for progression into in vivo studies and the potential for taking it forward as a clinical candidate for testing in humans. Since GSK716 results in loss of inhibitory activity of α1‐antitrypsin, the effect of the compound was assessed on other closely related serpins. […] Furthermore, there were no off‐target effects in a panel of assays considered predictive of known safety liabilities that precluded further development of GSK716 (Table EV1).

Another assay concerns NULL CHO-K1. Kind of assay: Off‐target panel: NULL CHO-K1 Agonist (DRX). The class given is cell-based. To be noted: Cricetulus griseus, read-out: Mean (PXC50). As for the experimental part:
as §1

Assay [1] deals with Z α1‐antitrypsin in CHO‐K1 Tet‐On cells. Nature of the assay: Pulse‐chase of Z α1‐antitrypsin in CHO‐K1 Tet‐On cells. It is filed as cell-based. To be noted: 10 μM GSK716. As for the experimental part: Figure 2 GSK716 inhibits polymerisation of Z α1‐antitrypsin in cell models of disease • A GSK716 was added to CHO‐TET‐ON‐Z‐A1AT cells (Ordóñez et al, 2013) with simultaneous induction of Z α1‐antitrypsin expression using doxycycline, and polymer load was quantified with the 2C1 monoclonal antibody that is specific to pathological polymers of α1‐antitrypsin (Miranda et al, 2010). […] Data were normalised to vehicle and a control compound from the GSK716 series at saturating concentration. […] It induced an approximately threefold increase in secreted levels of Z α1‐antitrypsin compared with vehicle control. This was apparent even after polymers had been allowed to form. Scale bar: 100 µm. Data presented as mean ± SD, n = 8 (secretion) and n = 6 (polymer inhibition). • E CHO tetracycline‐inducible cells expressing Z α1‐antitrypsin were induced with 0.5 μg/ml doxycycline for 48 h and treated with 10 μM GSK716. […] For every time point, NP‐40‐soluble and NP‐40‐insoluble fractions were separated and immunoprecipitated with the 2C1 mAb and resolved by 4–12% w/v SDS–PAGE and α1‐antitrypsin detected by immunoblotting. […] Cell viability was measured by Cell Counting Kit‐8. […] Samples were resolved by 4–12% w/v acrylamide SDS–PAGE and detected by autoradiography. • H The graphs show the effect of GSK716 on intracellular and extracellular Z α1‐antitrypsin (mean ± SEM, n = 2). […]

Assay [2] deals with Z α1‐antitrypsin polymers in iPSC‐derived human hepatocytes (ZZ genotype). Kind of assay: Z α1‐antitrypsin polymerisation in ZZ iPSC‐derived human hepatocytes. The class given is cell-based. To be noted: Hepatocyte, n = 16, read-out: mean pIC50, polymerisation (converted).
The target in the next assay is Acetyl- cholinesterase (Homo sapiens, UniProt P22303). Nature of the assay: Off‐target panel: Acetyl- cholinesterase. It is filed as biochemical. As for the experimental part:
as §1

For a further assay, the target named is Z α1‐antitrypsin (Homo sapiens, UniProt P01009, E366K). Nature of the assay: Competition binding assay with Alexa488‐labelled analogue of GSK716, Z α1‐antitrypsin. Also noted: purified from the plasma of Z α1‐antitrypsin homozygotes; from tissue; host or cells: human plasma of Z α1-antitrypsin homozygotes. The following applies: n = 18, mean ± SD, read-out: mean pKD (converted). From the text:
The shape of the curves and native mass spectrometry (not shown) are consistent with a single high‐affinity compound binding site. No binding of the fluorescent derivative to polymers of Z α1‐antitrypsin was observed, indicating conformational selectivity for the monomeric protein (Fig 1D). The rate of interaction of the compound with the target was monitored through changes in intrinsic tryptophan fluorescence (Dafforn et al, 1999); this property was used to determine the second‐order association rate constants for GSK716 binding to Z (4.1 × 10^4 M^−1 s^−1) and M α1‐antitrypsin (2.1 × 10^2 M^−1 s^−1; Fig 1E and F). […] Therefore, the selectivity of the compound for Z over M α1‐antitrypsin is dominated by the difference in the rate of association rather than dissociation.
Kinetic parameters of GSK716 binding to M, Z, S (Glu264Val) and Baghdad (Ala336Pro) (Haq et al, 2016) α1‐antitrypsin were measured by detecting intrinsic tryptophan fluorescence of the protein (excitation at 280 nm and detection of emission at 320 nm) on a stopped flow apparatus (Applied Photophysics) (Kim & Yu, 1996; Dafforn et al, 1999). […]

For another assay, the target named is hERG (Homo sapiens, UniProt Q12809). Nature of the assay: Off‐target panel: hERG (Barracuda). It is filed as cell-based. To be noted: Blocker, read-out: Mean (PXC50) (converted). As for the experimental part:
as §1
In general terms: hERG is a cardiac potassium channel; its block is linked to QT prolongation.

Chain of hERG (Q12809 whole entry): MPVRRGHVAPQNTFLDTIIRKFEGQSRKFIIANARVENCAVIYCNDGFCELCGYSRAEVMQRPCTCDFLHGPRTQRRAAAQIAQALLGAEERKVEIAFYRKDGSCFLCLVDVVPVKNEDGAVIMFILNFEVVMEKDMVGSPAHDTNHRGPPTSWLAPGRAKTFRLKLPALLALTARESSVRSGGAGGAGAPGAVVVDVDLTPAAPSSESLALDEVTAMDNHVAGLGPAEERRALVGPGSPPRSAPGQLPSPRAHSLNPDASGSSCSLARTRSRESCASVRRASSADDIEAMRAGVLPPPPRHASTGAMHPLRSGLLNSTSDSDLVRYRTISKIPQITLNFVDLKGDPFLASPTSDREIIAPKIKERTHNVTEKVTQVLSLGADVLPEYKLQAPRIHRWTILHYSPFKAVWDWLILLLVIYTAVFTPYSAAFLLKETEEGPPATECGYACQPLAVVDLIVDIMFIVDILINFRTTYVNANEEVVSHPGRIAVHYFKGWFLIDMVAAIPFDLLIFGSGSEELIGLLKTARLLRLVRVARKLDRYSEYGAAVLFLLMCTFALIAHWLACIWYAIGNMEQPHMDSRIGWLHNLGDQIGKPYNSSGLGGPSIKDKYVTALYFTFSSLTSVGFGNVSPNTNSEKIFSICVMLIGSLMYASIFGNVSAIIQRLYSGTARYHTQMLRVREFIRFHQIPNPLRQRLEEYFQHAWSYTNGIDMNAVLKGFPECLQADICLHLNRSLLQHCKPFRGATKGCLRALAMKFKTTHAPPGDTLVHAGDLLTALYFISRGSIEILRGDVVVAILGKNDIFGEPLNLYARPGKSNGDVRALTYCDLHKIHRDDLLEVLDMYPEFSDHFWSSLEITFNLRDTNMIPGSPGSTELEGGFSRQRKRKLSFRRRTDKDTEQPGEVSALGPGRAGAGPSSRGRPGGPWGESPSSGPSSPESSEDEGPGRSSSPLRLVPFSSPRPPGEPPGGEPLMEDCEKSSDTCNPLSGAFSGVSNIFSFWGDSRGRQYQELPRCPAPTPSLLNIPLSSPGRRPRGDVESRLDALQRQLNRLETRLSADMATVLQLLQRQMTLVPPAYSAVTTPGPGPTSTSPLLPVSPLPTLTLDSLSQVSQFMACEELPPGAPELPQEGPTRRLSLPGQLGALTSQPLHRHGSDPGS
Chain of Serotonin transporter (P31645 whole entry): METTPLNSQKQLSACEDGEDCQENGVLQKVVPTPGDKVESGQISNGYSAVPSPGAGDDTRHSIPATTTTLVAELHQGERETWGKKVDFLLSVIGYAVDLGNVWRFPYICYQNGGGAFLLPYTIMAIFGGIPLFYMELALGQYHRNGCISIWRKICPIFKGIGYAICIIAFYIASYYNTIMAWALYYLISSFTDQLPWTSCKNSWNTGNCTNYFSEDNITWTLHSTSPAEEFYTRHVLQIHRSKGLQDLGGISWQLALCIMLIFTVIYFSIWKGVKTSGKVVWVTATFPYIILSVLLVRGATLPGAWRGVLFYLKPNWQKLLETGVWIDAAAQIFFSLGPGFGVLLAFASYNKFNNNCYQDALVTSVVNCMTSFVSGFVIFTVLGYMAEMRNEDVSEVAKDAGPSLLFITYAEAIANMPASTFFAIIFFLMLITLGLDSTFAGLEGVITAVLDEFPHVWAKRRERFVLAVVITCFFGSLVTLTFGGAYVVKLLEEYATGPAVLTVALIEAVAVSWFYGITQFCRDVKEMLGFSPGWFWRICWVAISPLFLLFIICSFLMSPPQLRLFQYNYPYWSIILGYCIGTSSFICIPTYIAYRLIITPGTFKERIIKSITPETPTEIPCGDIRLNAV
Chain of Acetyl- cholinesterase (P22303 32-614, species assumed): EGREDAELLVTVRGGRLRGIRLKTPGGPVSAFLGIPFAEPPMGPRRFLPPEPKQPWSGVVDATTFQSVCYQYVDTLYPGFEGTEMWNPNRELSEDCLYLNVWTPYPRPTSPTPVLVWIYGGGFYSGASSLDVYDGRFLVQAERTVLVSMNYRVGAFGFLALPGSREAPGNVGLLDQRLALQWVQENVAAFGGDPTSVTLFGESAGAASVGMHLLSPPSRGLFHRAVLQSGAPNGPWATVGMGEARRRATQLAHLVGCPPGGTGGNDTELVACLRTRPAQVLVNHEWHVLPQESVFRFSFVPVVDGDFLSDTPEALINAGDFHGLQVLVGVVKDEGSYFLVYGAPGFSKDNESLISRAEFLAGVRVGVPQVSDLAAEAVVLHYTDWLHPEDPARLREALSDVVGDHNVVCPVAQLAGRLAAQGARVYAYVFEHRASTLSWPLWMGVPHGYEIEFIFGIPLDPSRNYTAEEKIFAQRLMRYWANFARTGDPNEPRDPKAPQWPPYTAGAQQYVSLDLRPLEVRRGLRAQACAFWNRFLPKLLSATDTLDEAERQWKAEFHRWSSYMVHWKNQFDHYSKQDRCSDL
Chain of Z α1‐antitrypsin (P01009 25-418 E366K): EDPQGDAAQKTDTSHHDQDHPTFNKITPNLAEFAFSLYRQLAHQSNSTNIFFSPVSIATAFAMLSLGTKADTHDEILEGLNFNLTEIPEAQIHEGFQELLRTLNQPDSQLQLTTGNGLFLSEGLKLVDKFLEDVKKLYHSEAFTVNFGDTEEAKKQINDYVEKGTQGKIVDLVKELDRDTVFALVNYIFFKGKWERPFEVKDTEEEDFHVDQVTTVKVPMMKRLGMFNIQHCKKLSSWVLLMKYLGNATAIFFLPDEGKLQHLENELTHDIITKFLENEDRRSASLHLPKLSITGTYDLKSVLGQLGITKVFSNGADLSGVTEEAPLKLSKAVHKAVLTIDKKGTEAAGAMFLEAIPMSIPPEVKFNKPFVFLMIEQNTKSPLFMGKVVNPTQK

`CCC[C@@H](NC(=O)c1cccc2c1CC(=O)N2)[C@@H](O)c1cccc(F)c1C` [GSK716]: the IC50 on Serotonin transporter is greater than 100 µM; in assay [2], 0.398 µM; at Acetyl- cholinesterase it was 100 µM; at hERG it was 15.8 µM. Besides, the EC50 in the assay on NULL CHO-K1 was greater than 100 µM. Besides, in assay [1], the “intracellular polymers, clearance and secretion in pulse‐chase” value is given as “abolished intracellular polymers”. In addition, at Z α1‐antitrypsin, the Kd is 0.00316 µM.

Values taken from PMC7933930, “Development of a small molecule that corrects misfolding and increases secretion of Z α1‐antitrypsin” (EMBO Molecular Medicine, 2021).
